Source: patent publication US12042503B2, “Compositions and methods for treating coronavirus infections” (priority 2020, dated 2024)
Where “and” joins values, the source holds several entries; their conditions need not be identical. Equal entries are not always repeated. Structures can show the parent of a compound that is named as a salt. Where two headings read alike, the source gives them in different places.

Tests used:
IP receptor (PTGIR) = target: T1, IP receptor (PTGIR) (Homo sapiens, UniProt P43119); assay: PathHunter beta-arrestin cell-based prostanoid receptor assay, IP
T1 construct: host or cells: PathHunter beta-arrestin cell line
Protocol: (§1) DiscoverX cell-based ligand binding assays were performed in the PathHunter beta-arrestin (EP1, EP2, EP3, EP4, FP, IP, and TP receptors) or cAMP Hunter™ (DP receptor) cell lines.
(§2) Receptor binding studies were performed in either the PathHunter® b-Arrestin (EP1, EP2, EP3, EP4, FP, IP, and TP receptors) or cAMP Hunter™ (DP receptor) cell lines. A 10 mM working stock of GP1681 was created in 1×PBS, pH 7.4. All assays were carried out in duplicate with 10 individual concentrations of GP1681. A three-fold dilution series of GP1681 was established for the initial or pilot experiment with a starting concentration of 4 uM (starting concentration was chosen based on previous Gemmus Pharma preclinical experimental results).
(§3) GP1681 was incubated with cells lines at either 37° C. or room temperature, for 90-180 minutes (temperatures and incubation times are all dependent on established optimized procedures for each receptor cell line) after which cell wells were processed and signal production detected. […] Vehicle only controls (PBS, pH 7.4) were also included for each receptor cell line. Receptor binding activity was analyzed using CBIS data analysis suite (ChemInnovation, CA). The percentage of activity was calculated using the following formula: % Activity=100%×(mean RLU of test sample−mean RLU of vehicle control)/(mean MAX control ligand−mean RLU of vehicle control). Dose curves were performed and EC50 values determined.

EP4 receptor (PTGER4) = target: T2, EP4 receptor (PTGER4) (Homo sapiens, UniProt P35408); assay: PathHunter β-Arrestin PTGER4 (EP4) antagonist assay against GP1681 at EC80; format: cell-based; conditions: for inhibition of GP1681 activity, in words: standard 10 μM top concentration
T2 construct: expressed in transfected cells; host or cells: PathHunter β-Arrestin PTGER4 (EP4) cell line
Protocol: This Example describes antagonist assay experiments performed with known EP4 receptor inhibitors. Agonist controls and antagonist binding studies were performed in the PathHunter® β-Arrestin PTGER4 (EP4) cell lines. The PathHunter® β-Arrestin assay monitors activation by bound ligands of a GPCR in a homogenous, non-imaging assay format using Enzyme Fragment Complementation (EFC) with β-galactosidase (β-Gal) as the functional reporter. A fresh 10 mM working stock of GP1681 was created in the vehicle (1×PBS, pH 7.4). Prior to setting up the GP1681-antagonist assays, the parameters of the GP1681 agonist assay were optimized for most efficient cellular activation and expression of the reporter molecule via GP1681 receptor (PTGER4) binding. Two different cell densities (5K vs 7.5K) and incubation temperatures (room temperature and 37 C) were evaluated in standard agonist format. […] Vehicle only controls (1×PBS, pH 7.4) were also included for each receptor cell line. Receptor binding activity was analyzed using CBIS data analysis suite (ChemInnovation Software, Inc., San Diego, CA, USA).
The percentage of activity was calculated using the following formula: % Activity=100%×(mean RLU of test sample−mean RLU of vehicle control)/(mean MAX control ligand−mean RLU of vehicle control). Dose curves were performed and EC50 values determined. In all rows, the assay was Arrestin, the assay target was PTGER4, and the result type was EC50 for all agonists, and IC50 for all antagonists. NI indicates no inhibition, N is number of replicates, K is cell density, and RT is room temperature.
All antagonist assays were carried out in duplicate with 10 individual concentrations of one of six antagonist compounds (commercially available from Cayman Chemical; Ann Arbor, MI, USA). […] For antagonist assays, data was normalized to the maximal and minimal response observed in the presence of EC80 ligand and vehicle. A three-fold dilution series of each compound was established with a parameters). […] Incubation was at 37° C. for 90-180 minutes after which cell wells were processed for signal detection. Microplates were read following signal generation with a PerkinElmer Envision™ instrument (Waltham, MA, USA) for chemiluminescent signal detection. Vehicle only controls (PBS, pH 7.4) were also included for each antagonist run. Receptor binding activity was analyzed using CBIS data analysis suite (ChemInnovation, CA, USA). […] Percentage inhibition was calculated using the following formula: % Inhibition=100%×(1−(mean RLU of test sample−mean RLU of vehicle control)/(mean RLU of EC80 control−mean RLU of vehicle control)). […] This molecule was included as a control molecule for Eurofins work.

TP receptor (TBAX2R) = target: T3, TP receptor (TBAX2R) (Homo sapiens, UniProt P21731); assay: PathHunter beta-arrestin cell-based prostanoid receptor assay, TP; conditions: Run 1, GP1681 starting concentration 4 uM; β-Arrestin
T3 construct: host or cells: PathHunter beta-arrestin cell line
T3 sequence (P21731 1-343): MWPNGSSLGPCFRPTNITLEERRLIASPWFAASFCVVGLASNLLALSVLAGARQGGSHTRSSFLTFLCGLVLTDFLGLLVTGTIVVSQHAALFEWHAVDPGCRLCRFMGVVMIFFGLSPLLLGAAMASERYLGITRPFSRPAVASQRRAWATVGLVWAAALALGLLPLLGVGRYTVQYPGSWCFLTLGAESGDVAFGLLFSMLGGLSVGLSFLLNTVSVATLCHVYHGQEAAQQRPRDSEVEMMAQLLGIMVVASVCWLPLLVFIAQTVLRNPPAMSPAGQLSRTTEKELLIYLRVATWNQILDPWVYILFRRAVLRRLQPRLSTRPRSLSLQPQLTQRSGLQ
Protocol: as §1, §2, §3

DP1 receptor (PTGDR) = target: T4, DP1 receptor (PTGDR) (Homo sapiens, UniProt Q13258); assay: cAMP Hunter cell-based prostanoid receptor assay, DP receptor; conditions: HitHunter cAMP cell line
T4 construct: host or cells: cAMP Hunter (DP receptor) cell line
T4 sequence (Q13258 1-359): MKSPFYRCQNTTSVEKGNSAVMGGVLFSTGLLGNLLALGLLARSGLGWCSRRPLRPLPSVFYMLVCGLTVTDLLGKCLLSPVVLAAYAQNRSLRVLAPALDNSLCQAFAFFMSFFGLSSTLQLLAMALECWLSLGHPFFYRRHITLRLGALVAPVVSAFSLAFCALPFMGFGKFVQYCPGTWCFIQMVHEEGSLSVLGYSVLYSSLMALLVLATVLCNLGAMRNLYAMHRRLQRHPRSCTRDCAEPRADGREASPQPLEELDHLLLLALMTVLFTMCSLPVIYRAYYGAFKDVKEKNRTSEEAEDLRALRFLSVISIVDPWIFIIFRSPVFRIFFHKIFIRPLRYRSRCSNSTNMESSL
Protocol: as §1, §2, §3
(§4) The four assays were repeated with a higher starting concentration.
(§5) The second experimental run of the receptor binding assay was performed with these last four cell lines including GP1681 and their respective positive and negative (vehicle, PBS pH 7.4) controls. A 10 mM GP1681 working stock was again created in 1×PBS, pH 7.4. A three-fold serial dilution scheme was again used for GP1681 samples, starting this time at a concentration of 500 μM. The remainder of the second experimental run was performed in the same manner as run 1.

EP1 receptor (PTGER1) = target: T5, EP1 receptor (PTGER1) (Homo sapiens, UniProt P34995); assay: PathHunter beta-arrestin cell-based prostanoid receptor assay, EP1; conditions: β-Arrestin
T5 construct: host or cells: PathHunter beta-arrestin cell line
T5 sequence (P34995 1-402): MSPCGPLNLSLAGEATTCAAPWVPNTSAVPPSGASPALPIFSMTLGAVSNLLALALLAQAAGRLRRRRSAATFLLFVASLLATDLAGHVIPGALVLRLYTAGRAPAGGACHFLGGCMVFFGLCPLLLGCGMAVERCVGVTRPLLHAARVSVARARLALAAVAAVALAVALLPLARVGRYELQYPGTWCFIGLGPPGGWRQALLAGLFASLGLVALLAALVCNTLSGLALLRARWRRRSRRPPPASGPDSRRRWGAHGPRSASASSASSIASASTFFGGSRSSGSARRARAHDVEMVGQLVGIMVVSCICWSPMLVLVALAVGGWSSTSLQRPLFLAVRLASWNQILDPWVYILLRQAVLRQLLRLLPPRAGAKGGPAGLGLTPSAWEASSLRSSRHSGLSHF
Protocol: as §1, §2, §3, §4, §5

[1] = 5K 37C, challenge with GP1681 at EC80 (45 μM), read-out: RC50 (μM) / IC50, antagonist
[2] = 5K 37C, GP1681 at EC80, read-out: IC50 for competitive inhibition of GP1681
[3] = Run 1, GP1681 starting concentration 4 uM, curve for GP1681 not fully sigmoidal
[4] = Run 2, GP1681 starting concentration 500 μM

T2 sequence (P35408 whole entry): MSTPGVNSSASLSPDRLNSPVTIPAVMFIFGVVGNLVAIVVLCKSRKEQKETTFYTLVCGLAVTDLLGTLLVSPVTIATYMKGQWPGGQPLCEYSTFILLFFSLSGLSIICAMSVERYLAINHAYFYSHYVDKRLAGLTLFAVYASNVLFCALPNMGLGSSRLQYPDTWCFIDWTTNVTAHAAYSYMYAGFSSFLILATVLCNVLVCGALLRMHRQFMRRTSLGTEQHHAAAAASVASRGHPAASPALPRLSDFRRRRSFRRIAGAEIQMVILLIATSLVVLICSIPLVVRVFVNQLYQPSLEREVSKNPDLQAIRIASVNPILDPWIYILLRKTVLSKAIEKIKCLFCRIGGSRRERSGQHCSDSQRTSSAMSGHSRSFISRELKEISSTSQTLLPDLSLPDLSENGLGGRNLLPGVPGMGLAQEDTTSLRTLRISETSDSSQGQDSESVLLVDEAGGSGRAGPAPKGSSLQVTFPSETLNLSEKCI
T1 sequence (P43119 whole entry): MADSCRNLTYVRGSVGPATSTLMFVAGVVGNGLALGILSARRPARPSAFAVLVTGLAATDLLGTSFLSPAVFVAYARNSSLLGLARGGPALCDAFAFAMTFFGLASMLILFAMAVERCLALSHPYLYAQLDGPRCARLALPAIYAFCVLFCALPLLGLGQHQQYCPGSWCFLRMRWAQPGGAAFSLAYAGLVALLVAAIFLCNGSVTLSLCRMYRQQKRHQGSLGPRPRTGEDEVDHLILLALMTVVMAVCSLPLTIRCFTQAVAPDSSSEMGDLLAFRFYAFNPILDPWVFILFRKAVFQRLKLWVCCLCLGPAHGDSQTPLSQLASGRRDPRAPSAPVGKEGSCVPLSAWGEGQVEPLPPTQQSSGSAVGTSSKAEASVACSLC

`CC#CCC(C)C(O)C=CC1C(O)CC2Oc3c(CCCC(=O)O)cccc3C21` (racemic) [Beraprost, 2,3,3a,8b-tetrahydro-2-hydroxyl-1-(3-hydroxyl-4-methyl-1-octen-6-ynyl)-1H-cyclopenta[b]benzofuran-5-butanoic acid, sodium salt] was tested. Which EC50 (IP receptor (PTGIR)) did it give?
Its EC50 is 0.436 µM.

What about the “fold lower affinity as compared to GP1681 for the IP receptor” value (IP receptor (PTGIR); ratio of EC50 values) of the same compound?
The value was “about 4 fold”.

What does the source list for `O=C(O)CC/C=C\CC[C@H]1[C@H](N2CCOCC2)C(=O)C[C@H]1OCc1ccc(-c2ccccc2)cc1` [AH 23848 (Ca salt)]?
IC50 (EP4 receptor (PTGER4); [1]): > 10 µM; inhibition of GP1681 activity, in words (EP4 receptor (PTGER4); GP1681 at EC80): did not inhibit GP1681

For `CCCCCC(O)CCC1CCC(=O)N1CCCCCCC(=O)O` (stereo not drawn) [CAY10580], which IC50 (EP4 receptor (PTGER4); [1]) is on record?
Its IC50 is > 10 µM.

And the “complementary activity in antagonist assay, in words” value (EP4 receptor (PTGER4); only at 3 and 10 μM concentrations)?
Its value is “low level of complementary activity”.

What about the “inhibition of GP1681 activity, in words” value (EP4 receptor (PTGER4); GP1681 at EC80) of the same compound?
The value was “did not inhibit activity of GP1681”.

Which IC50 (EP4 receptor (PTGER4); IC50 for competitive inhibition of GP1681, 5K 37C, GP1681 at EC80) does the source give for `CCc1nc2c(C)nc(C)cc2n1-c1ccc(CCNC(=O)NS(=O)(=O)c2ccc(C)cc2)cc1` [CJ-023423] here?
The IC50 was 0.0265 µM.

And the IC50 (EP4 receptor (PTGER4); RC50 (μM) / IC50, antagonist, 5K 37C, challenge with GP1681 at EC80 (45 μM))?
Its IC50 is 0.0265 µM and 0.0266 µM.

How did the IC50 (EP4 receptor (PTGER4); [2]) turn out when `CCOc1c2c(c(OCC)c3ccccc13)C(=O)N(c1ccc(CC(=O)NS(=O)(=O)c3ccccc3)cc1)C2` [GW 627368X] was run?
Its IC50 is 0.0442 µM.

What about the IC50 (EP4 receptor (PTGER4); [1]) of the same compound?
The IC50 was 0.0442 µM.

For `O=C(O)CCC/C=C\C[C@@H]1[C@@H](/C=C/[C@@H](O)COc2ccc(I)cc2)[C@H]2CC[C@@H]1O2` [I-BOP, reference compound], which EC50 (TP receptor (TBAX2R)) is on record?
The EC50 was 0.032 µM.

What does the source list for `CCCCc1nn(-c2ccccc2C(F)(F)F)c(=O)n1Cc1ccc(-c2ccccc2S(=O)(=O)NC(=O)c2sccc2C)cc1` [L-161,982]?
IC50 (EP4 receptor (PTGER4); [2]): 0.0339 µM; IC50 (EP4 receptor (PTGER4); [1]): 0.0339 µM

Which results are given for `CCCCC[C@H](O)/C=C/[C@H]1C(=O)C[C@H](O)[C@@H]1C/C=C\CCCC(=O)O` [PDG2, PGD2, reference compound]?
EC50 (DP1 receptor (PTGDR); [3]): 0.0022 µM; EC50 (DP1 receptor (PTGDR); [4]): 0.0012 µM

For `CCCCC[C@H](O)/C=C/[C@H]1[C@H](O)CC(=O)[C@@H]1C/C=C\CCCC(=O)O` [PGE2, Prostaglandin E2, reference compound], which EC50 (EP1 receptor (PTGER1); [3]) is on record?
The EC50 was 0.0049 µM.

What about the EC50 (EP1 receptor (PTGER1); [4]) of the same compound?
The EC50 was 0.0063 µM.
